Measured values: the METLIN SMRT retention time set (Domingo-Almenara et al. 2019)

Test: gradient 5% acetonitrile 3 min, to 50% in 2 min, to 85% in 15 min, held 3 min, 100 µL/min
Conditions: column: Zorbax Extend-C18 2.1 x 50 mm; eluents: water / acetonitrile, 0.1% formic acid
Method in brief: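 Data were gathered over 3 months by HPLC coupled to a quadrupole time-of-flight mass spectrometer, operated in positive and negative ionization mode. Mixtures of ~100 pure standards ran on a Zorbax Extend-C18 column (2.1 × 50 mm, 1.8 μm) at 100 μL/min, with water and acetonitrile each containing 0.1% formic acid and dead and dwell volumes of 40 μL and 900 μL. Retention time was read from adduct peaks picked by computer and checked manually.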

Compared with `Cc1ccc(-c2noc(C(=O)N3CCCC3)n2)cc1S(=O)(=O)N1CCN(c2ncccn2)CC1`, `O=S(=O)(c1cccc(-c2nc(-c3ccccc3)no2)c1)N1CCN(C2CCCCC2)CC1` is lower in RP-LC retention time: 959 s for the first, 840 s for the second.

First: COc1ccccc1-c1nnc(C2CCN(S(C)(=O)=O)CC2)s1
Second: COC(=O)c1cc(S(=O)(=O)N2CCCC2C(=O)Nc2cccc(C)n2)cn1C (configuration not stated)
The RP-LC retention time of the first is lower: 734 s for the first, 773 s for the second.

Compared with `COc1cccc(OC)c1OCC(O)CN1CCN(c2ccc(F)cc2)CC1` (configuration not stated), `O=C(COc1ccccc1)NCCS(=O)(=O)N1CCN(c2cccc(Cl)c2)CC1` is higher in RP-LC retention time: 690 s for the first, 926 s for the second.

First: Cc1ccc(N2CCCS2(=O)=O)cc1NS(=O)(=O)c1c(C)noc1C
Second: CCC(=O)Nc1c(C)noc1/C=C\c1ccc(S(=O)(=O)N2CCN(c3ccccn3)CC2)cc1
The RP-LC retention time of the first is higher: 866 s for the first, 646 s for the second.

Compared with `Cc1ccccc1Cn1cnc2c(cnn2CCNC(=O)Cn2cnc3ccccc32)c1=O`, `Cn1c(=O)oc2cc(-c3noc(CNC(=O)C(c4ccccc4)c4ccccc4)n3)ccc21` is higher in RP-LC retention time: 578 s for the first, 928 s for the second.

Compared with `NC(=O)CSc1nnc(-c2ccncc2)o1`, `Cc1nc(-c2ccncc2)nc2c1CCC(=O)N2Cc1ccncc1` is higher in RP-LC retention time: 486 s for the first, 540 s for the second.

First: COc1ccc(-n2nc(-c3nc(-c4ccccn4)no3)c3ccccc3c2=O)cc1
Second: COc1ccc(OCc2noc(CNC(=O)c3cnn(-c4ccccc4)c3C)n2)cc1
The RP-LC retention time of the first is higher: 946 s for the first, 799 s for the second.

First: COc1cccc(NC(=O)c2sc(-c3cn(C(C)C)c4ncccc34)nc2C)c1
Second: Cc1cc(NC(=O)c2sc(-c3cn(C)c4ncccc34)nc2C)ccc1F
The RP-LC retention time of the first is higher: 1060 s for the first, 979 s for the second.

First: Cc1cc(N2CCN(C)CC2)nc2ccc(NC(=O)NC3CCCC3)cc12
Second: O=C(NCCCN1CCCCC1)c1ccc(-c2ccnc(N3CCCC3)n2)cc1
The RP-LC retention time of the first is lower: 568 s for the first, 592 s for the second.

Going from `Clc1ccc(-c2nnc(-c3cccnc3N3CCC4(CC3)OCCO4)o2)cc1` to `Fc1ccccc1-c1nc(-c2ccnc(N3CCCC3)c2)no1`, the RP-LC retention time falls from 1010 s to 702 s.

Compared with `CN(C)c1cnc(-n2cc(NC(=O)c3cccc(N(C)C)c3)cn2)nc1`, `CCn1cnc2cc(CNC(=O)c3ccsc3)ccc21` is lower in RP-LC retention time: 672 s for the first, 572 s for the second.

First: COC(=O)C1=C(NC(=O)COc2ccc(Cl)cc2Cl)CCS1
Second: Cc1oc2cc(OCC#N)ccc2c(=O)c1-c1ccc(Cl)cc1
The RP-LC retention time of the first is higher: 1110 s for the first, 926 s for the second.

Compared with `Cc1ccc(S(=O)(=O)N2CCCC(CCC(=O)N3CCOCC3)C2)cc1` (configuration not stated), `CCCn1ncc(N2CCC(C(=O)N3CCOCC3)CC2)cc1=O` is lower in RP-LC retention time: 814 s for the first, 619 s for the second.

`CCOC(=O)c1c(C)c(C(=O)C(C)N(Cc2ccc(F)cc2)C(=O)CC)c(C)n1CC` (configuration not stated) and `CCCNC(=O)c1c(O)c2cccnc2n(-c2ccc(OC)cc2)c1=O` are the same in RP-LC retention time: 1080 s for the first, 1080 s for the second.

First: CCc1ccc(-c2cc3c(=O)n(Cc4noc(CN5CCCCC5C)n4)ccn3n2)cc1 (configuration not stated)
Second: CCCN1C(=O)COc2cc(-c3noc(C(=O)NCCC4=CCCCC4)n3)ccc21
The RP-LC retention time of the first is lower: 761 s for the first, 1180 s for the second.

First: CCCN1CCN(C(=O)CCC(=O)N2CCc3c(c(C(=O)N4CCCC4)nn3C)C2)CC1
Second: Cc1nc(-c2ccncc2)nc2c1CCC(=O)N2CCN1CCCC1
The RP-LC retention time of the first is higher: 577 s for the first, 533 s for the second.

Going from `CCc1nc2ccccc2n1CC(=O)NCC(C)C` to `Cc1cn(C)nc1C(=O)N(CCN1CCOCC1)c1nc2c(C)ccc(C)c2s1`, the RP-LC retention time rises from 597 s to 648 s.

Compared with `COC1C(=O)N(CC2CC2)C12CCN(C(=O)C1CCOCC1)CC2` (configuration not stated), `CN1C(=O)c2ccccc2Oc2ccc(C(=O)NCc3ccc4c(c3)OCO4)cc21` is higher in RP-LC retention time: 638 s for the first, 826 s for the second.

`OCC1OC(n2cnc3c(SCc4ccccc4)ncnc32)C(O)C1O` (configuration not stated) showed an RP-LC retention time of 663 s.
